We go through one compound from US9707244B2, “Compositions and methods for treating conditions that affect epidermis” (Gencia Corporation, priority 2013, dated 2017).

Experiment [1] relates to AG16409 untransformed human skin fibroblasts from a person. Put plainly: Cellular senescence assay (SA-β-Gal fluorometric), young fibroblasts. Type of experiment: cell-based. The following applies: increasing concentration. From the text:
Senescent cells show common biochemical markers such as expression of an acidic senescence-associated β-galactosidase (SA-β-Gal) activity. While senescence has been characterized primarily in cultured cells, there is also evidence that it occurs in vivo. Cells expressing markers of senescence such as SA-β-Gal have been identified in normal tissues. To determine whether modified Mitocreatine analogues may influence the scenesence in aged fibroblasts, a 96-well Cellular Senescence Assay (SA-β-Gal Fluorometric Format) Cat # CBA-231 Cell Biolabs, Inc. was employed and buffers referenced were supplied by the manufacturer and in some cases freshly prepared prior to usage according to the manufacturer's instructions.
The cells utilized were Human Skin Fibroblast acquired from Coriell Cell Repository. The cell line AG11073 is untransformed human skin fibroblasts from a person. The primary culture was initiated from explants of a 2 mm-punch biopsy. The cell line AG16409 was untransformed human skin fibroblasts from a person.
Cells were grown in a 96 well plate. […]
50 μL, of the reaction mixture was removed to a 96-well plate suitable for fluorescence measurement. The reaction was stopped by adding 200 μL of Stop solution and fluorescence was measured with a fluorescence plate reader (PHERA Star FS from BMG Labtech) at 360 nm (Excitation)/465 nm (Emission).

Another experiment relates to fibroblasts. Description: Oxygen consumption rate (XF24 extracellular flux analyzer) in fibroblasts. Particulars: 5 nM to 500 nM; within thirty minutes of treatment; compared to 10 μM unmodified creatine. The class given is cell-based. How it is done: In this assay, an XF24 extracellular flux analyzer (Seahorse Bioscience, North Billerica, Mass.) was used to measure mitochondrial oxygen consumption in intact cells. The XF24 analyzer creates a transient 7 μL chamber in specialized microplates that allows determination of oxygen and proton concentrations in real time through the measurement of oxygen sensitive dyes by the XF24 instrument. 24 hours prior to OCR measurement, fibroblasts were seeded into 20 wells of the 24 well tissue culture plate while 1 ml of XF Calibrant solution (Seahorse Bioscience, North Billerica, Mass.) was added to each well of a 24 well dual-analyte sensor cartridge (Seahorse Bioscience, North Billerica, Mass.). The sensor cartridge repositioned on the 24 well calibration plate, and the plate was incubated overnight at 37° C. without additional CO2.
On the day of the experiment, the injection ports on the sensor cartridge were loaded with compound A-1 or creatine as indicated at 10× concentrations and placed into the XF24 Flux Analyzer for automated calibration. […]
The results of the assay for Mitocreatine at 5 nM, 10 nM, 50 nM, and 500 nM concentrations are shown in FIG. 2 as a percent change from the untreated control. For comparison, the results obtained Mitocreatine were compared with the percent increase in oxygen consumption rate measured upon addition of 10 μM creatine.

Experiment [2] concerns AG11073 fibroblasts from a person. Description: 3D collagen cell culture system, aged skin fibroblasts. The class given is cell-based, human. Particulars: five days post-treatment. How it is done:
The effects of Mitocreatine on skin fibroblasts cultured in a 3D matrix to better simulate in vivo milieu were examined. The cells were visualized by phase contrast light microscopy and their biological response to different concentrations of Mitocreatine evaluated. The 3D Collagen Cell Culture System from Millipore (Catalogue number ECM 675) was utilized.
All liquids were prepared according to manufacturer's instructions, and kept on ice. Tissue culture plates were coated with collagen by pipetting 500 μL of chilled Collagen Gel Solution into each well of a 24 well tissue culture plate. The plate was immediately transferred to a 37° C. incubator for 60 min to initiate polymerization of the collagen.
After the formation of the collagen gel, AG11073 and AG16409 cells were harvested and re-suspended at 4×10^5/mL and 1×10^6 cells were seeded onto the collagen gel. The cells were obtained using the procedure as described in Example 1.
After overnight incubation at 37° C. with 5% CO2 the media was replaced with fresh media containing various doses of Mitocreatine or the vehicle. Cells were visualized daily using phase contrast microscopy.
Fibroblasts from a person were cultured on a collagen matrix. Two days after seeding, cells were treated with a Mitocreatine at increasing amounts (0, 5, 15 and 25 μL). Five days post-treatment, collagen shrinkage was assayed by means of translucency. […]

For experiment [3], the system named is ARPE-19 cells, a retinal pigmented epithelial cell line. Put plainly: DCFDA ROS production in senescent ARPE-19 cells. The class given is cell-based, human. The following applies: forty-eight hours after treatment; increasing concentrations. How it is done: In the present invention ARPE-19 cells were used to evaluate whether Mitocreatine improves mitochondrial parameters and reduces ROS in a cell model of AMD. The cells were prematurely senescenced according to the protocol of Glotin et al. (2008). ARPE-19 cells, a retinal pigmented epithelial cell line, were prematurely senesced according to the protocol of Glotin et al. (2008). Cells were plated in a 96 well plate for analysis of reactive oxygen species (ROS) production using DCFDA, a fluorogenic dye that is oxidized by hydroxyl, peroxyl and other ROS.

Entries after “also recorded” stand apart in the source; their conditions may differ.

Regarding `CN(CC(=O)NCCC[P+](c1ccccc1)(c1ccccc1)c1ccccc1)C(=N)N.Cl.[Cl-]` [Mitocreatine, N^2-[ammonio(imino)methyl]-N^2-methyl-N-[3-(triphenylphosphonio)propyl] glycinamide dichloride], in experiment [1], the “β-galactosidase expression/activity (senescence marker)” value was “this decrease failed to reach statistical significance; also recorded: statistically insignificant decrease”. Also, the oxygen consumption rate result in the experiment with fibroblasts is “significant increase in oxygen consumption rate”. The collagen matrix translucency result in experiment [2] is given as “dose-dependent increase”. In experiment [3], the ROS production entry is “dose-independent decrease”.
